{
  "source": "paper PMC9440028",
  "about": "“Neurotensin analogs by fluoroglycosylation at N^ω-carbamoylated arginines for PET imaging of NTS1-positive tumors” (Scientific Reports, 2022)",
  "key": {"hNTS1R": {"molecular_target": "T1, hNTS1R (Homo sapiens, UniProt P30989)", "T1 construct": "at hNTS1R expressing intact human HT-29 colon carcinoma cells; endogenous in cells; host or cells: HT-29 human colon carcinoma cells (intact)", "T1 sequence (P30989 whole entry)": "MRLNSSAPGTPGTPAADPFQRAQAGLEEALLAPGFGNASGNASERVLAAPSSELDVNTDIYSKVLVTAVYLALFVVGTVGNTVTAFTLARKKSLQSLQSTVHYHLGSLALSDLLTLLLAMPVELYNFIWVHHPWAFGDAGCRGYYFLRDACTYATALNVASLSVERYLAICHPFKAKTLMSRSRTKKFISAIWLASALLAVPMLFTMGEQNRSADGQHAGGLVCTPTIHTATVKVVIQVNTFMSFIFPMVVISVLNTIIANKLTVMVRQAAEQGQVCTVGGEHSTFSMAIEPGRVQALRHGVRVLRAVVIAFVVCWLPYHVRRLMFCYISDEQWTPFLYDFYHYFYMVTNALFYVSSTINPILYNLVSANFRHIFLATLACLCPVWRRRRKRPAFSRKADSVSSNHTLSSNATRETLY", "experiment": "Radioligand competition binding with [^3H]UR-MK300 at intact HT-29 cells", "conditions": "[^3H]UR-MK300 (Kd = […], c = 1 nM), 23 °C", "protocol": "Unspecific binding was subtracted from total binding to obtain specific binding. Data analysis was performed by plotting % specifically bound radioligand (100% = specifically bound radioligand in the absence of competitor) over log(concentration of competitor) followed by a four-parameter logistic fit (SigmaPlot 12.5, Systat Software). […] The Ki values from individual experiments were transformed to pKi values, followed by the calculation of mean pKi values ± SEM."}, "[1]": {"experiment": "In vitro stability in human plasma/PBS (1:2 v/v) at 37 °C", "format": "in vitro ADME", "conditions": "human blood plasma/PBS (1:2 v/v), read-out: % intact peptide in human plasma after the given incubation time", "protocol": "(§1) The metabolic stabilities of 11–14, 16 and 18–21 (cf. Table 2) were investigated in human blood plasma/PBS (136.9 mM NaCl, 2.68 mM KCl, 5.62 mM Na2HPO4, 1.09 mM NaH2PO4 and 1.47 mM KH2PO4) pH 7.4 (1:2, v/v) according to a described procedure[13] with the following modifications: 5 mM stock solutions in EtOH/0.04% aq TFA (30:70 v/v) (11–13), MeCN/0.025% aq TFA (30:70 v/v) (14), MeCN/0.04% aq TFA (30:70 v/v) (16, 19 and 21) or EtOH/H2O (40:60 v/v) (18, 20) were used for the addition of the peptides to plasma/PBS (1:2 v/v). As the RP-HPLC purity of 1-Methyl-D-Trp (internal standard, IS) was < 95% (data not shown), the compound was purified by preparative HPLC to give a purity of > 99%. The concentration of the peptides in plasma/PBS (1:2 v/v) was 80 and 4 µM (recovery determination) or 100 µM (stability tests). The obtained recoveries and the recovery ratios (peptide/internal standard) are summarized in Supplementary Table S1. Data analysis was based on UV detection at 220 nm. Additionally, the stability of compound 21 was investigated in mouse plasma/PBS (1:2 v/v) using the same procedure as described above for human plasma. Mouse plasma was obtained by the collection of blood from anaesthetized mice via cardiac puncture using a syringe that was rinsed with sodium heparin (25,000 I.E., Ratiopharm, Ulm, Germany). The heparinized blood was transferred into a 2-mL reaction vessel, followed by centrifugation (1200 g, 4 °C, 10 min). The supernatants were pooled, centrifuged again (1200 g, 4 °C, 10 min), the plasma was aliquoted and stored at − 80 °C. The concentration of 21 in plasma/PBS (1:2 v/v) was 80 and 4 μM (recovery determination) or 100 μM (stability tests). The obtained recoveries and the recovery ratios (21/IS) are summarized in Supplementary Table S2. Data analysis was based on UV detection at 220 nm."}, "[2]": {"experiment": "In vitro stability in mouse plasma/PBS (1:2 v/v) at 37 °C", "format": "in vitro ADME", "conditions": "read-out: % intact peptide in mouse plasma after the given incubation time", "protocol": "as §1"}},
  "note": "Like-named read-outs stand apart in the source and are kept apart here.",
  "data": [
    {"smiles": "CN[C@@H](CCCNC(=N)NC(=O)NCCCCNC(=O)CCc1cn([C@@H]2O[C@H](CF)[C@@H](O)[C@H](O)[C@H]2O)nn1)C(=O)N[C@@H](CCCNC(=N)N)C(=O)N1CCC[C@H]1C(=O)N[C@@H](Cc1ccc(O)cc1)C(=O)N[C@H](C(=O)N[C@@H](CC(C)C)C(=O)O)C(C)(C)C", "note": "[Compound 21, N^α-methyl-(N^ω-{N-[4-(3-{1-[6-deoxy-6-fluoro-β-D-glucopyranosyl]-1H-1,2,3-triazol-4-yl}propanoyl)aminobutyl]aminocarbonyl})Arg-Arg-Pro-Tyr-2-tert-butyl-Gly-Leu-OH tris(hydrotrifluoroacetate)]", "values": [
      {"measurement": "Ki", "setting": "hNTS1R; mean", "value": "one-digit nanomolar range"},
      {"measurement": "Ki", "setting": "hNTS1R; mean, read-out: Ki (converted)", "value": 4.3, "unit": "nM"},
      {"measurement": "Ki", "setting": "hNTS1R; read-out: pKi ± SEM (converted)", "value": 4.07, "unit": "nM"},
      {"measurement": "remaining at 1 h, 100 µM", "setting": "[1]; pH 7.4, 1 h", "value": "> 99", "unit": "%"},
      {"measurement": "remaining at 6 h, 100 µM", "setting": "[1]; pH 7.4, 6 h", "value": "> 99", "unit": "%"},
      {"measurement": "remaining at 24 h, 100 µM", "setting": "[1]; pH 7.4, 24 h", "value": "> 99", "unit": "%"},
      {"measurement": "remaining at 48 h, 100 µM", "setting": "[1]; pH 7.4, 48 h", "value": "99 ± 1", "unit": "%"},
      {"measurement": "remaining at 10 min, 100 µM", "setting": "[2]; pH 7.4, 10 min", "value": "> 99", "unit": "%"},
      {"measurement": "remaining at 1 h, 100 µM", "setting": "[2]; pH 7.4, 1 h", "value": "> 99", "unit": "%"},
      {"measurement": "remaining at 2 h, 100 µM", "setting": "[2]; pH 7.4, 2 h", "value": "> 99", "unit": "%"},
      {"measurement": "remaining at 6 h, 100 µM", "setting": "[2]; pH 7.4, 6 h", "value": "> 99", "unit": "%"},
      {"measurement": "remaining at 24 h, 100 µM", "setting": "[2]; pH 7.4, 24 h", "value": "> 99", "unit": "%"},
      {"measurement": "remaining at 48 h, 100 µM", "setting": "[2]; pH 7.4, 48 h", "value": "> 99", "unit": "%"}
    ]}
  ]
}
